Test results taken from patent US12514834B2, “Pharmaceutical composition for treating and/or preventing renal cystic ciliopathy” (Kyoto University, priority 2022, dated 2026).

Key:
[1] = system: cysts of collecting duct organoids from PKD1 knockout iPS cells (1383D2 cell line); test: Cyst enlargement inhibition in cysts from artificial collecting duct organoids induced from PKD1 knockout iPS cells; format: cell-based, human; settings: 0.1 μM compound, with 2.5 μM AVP, 3 days of culturing, vs 0.1% DMSO; FIGS. 1-5
Experimental: Using PKD1 knockout iPS cells of the 1383D2 cell line, artificial collecting duct organoids with cystic structures were induced by the above method. The following protocol was used to examine compounds that inhibit cyst enlargement. • 1. Organoids in which cyst formation was occurring were collected in tubes. • 2. Medium was removed and 2 ml of Cell Recovery Solution was added. (4° C., 30 minutes) • 3. Gel was dissolved by gentle pipetting with a P-1000 pipetteman and then centrifuged. (500 g, 2 minutes) • 4. After removing the supernatant from 3 and adding 5 ml of FBS-containing medium (STO medium), cysts were separated from the organoids by pipetting. • 5. Using a stereomicroscope, cysts were collected in 15 ml tubes. • 6. The supernatant was removed, and then 2 ml of Accutase was added to perform treatment at 37° C. for 5 minutes. • 7. Cells were dissociated down to single cells by pipetting with a P-1000 pipetteman. • 8. After filtering, cells were counted. • 9. After cell counting, a cell suspension containing the required number of cells was transferred to a tube, and then 5 ml of FBS-containing medium (STO medium) was added to stop the Accutase reaction. To seed at 5×10^4 cells/well, the amount of the cell suspension required was calculated. • 10. Pellets were prepared by centrifugation (200 g, 5 minutes). • 11. The supernatant was thoroughly removed, and then DMEM/F12+B27 w/o V.A. medium (10% Afamin/Wnt3a CM, 200 ng/ml R-Spondin 1, 200 ng/ml FGF1, 10 μM Forskolin, 2.5 μM AVP, 10 μM Y27632) was added for suspension. To seed at 5×10^4 cells/well, the amount of medium required was calculated. • 12. The cell suspension from 11 was seeded at 5×10^4 cells/well into pre-prepared 50% Matrigel plates. The cell suspension was added slowly to avoid disrupting the Matrigel. • 13. […] Nine (9) locations inside the wells were photographed using a 4× objective lens under a fluorescence microscope (Keyence, BZ-X700), the cyst area was measured using a BZ-X Analyzer, and then the average value was calculated.
Cyst enlargement-inhibiting compounds to be evaluated in step 14 were added. […]

[2] = system: cyst cells from PKD1 knockout iPS cell-derived collecting duct organoids; test: Microarray comparison of gene expression in cyst cells cultured with and without TTNPB (GSEA, heat maps); format: cell-based, human; settings: 0.1 μM TTNPB, cysts on day 5 of culture
Experimental: For comprehensive profiling of transcripts encoding human proteins, microarray analysis was performed at Filgen using the Human 8×60K LncRNA expression array (ArrayStar). Labeling of samples and array hybridization were performed according to the Agilent One-Color Microarray-Based Gene Expression Analysis protocol (Agilent Technology). Data were collected using Agilent's Feature Extraction software. Raw signal intensities were normalized using the quantile normalization method of GeneSpring GX v12.1.
To clarify the mechanism of action of TTNPB, gene expression in cyst cells cultured with and without TTNPB was compared by microarray (FIGS. 6 and 7).

[3] = system: Pkd1flox/flox:Ksp-Cre mice (ADPKD model); test: ATRA treatment of ADPKD model mice; format: in vivo, mouse
Source text: Pkd1^flox/flox:Ksp-cre mice, which are ADPKD model mice, develop numerous cysts progressively after birth and die at approximately 14 days of age due to renal failure.
Mouse lineages were maintained with heterozygous Pkd1^flox/+:Ksp-Cre mice, and Pkd1^flox/flox:Ksp-cre mice were generated by mating mice of the same lineage.
On postnatal day 3, Pkd1^flox/flox:Ksp-cre mice (Cystic) and Pkd1^flox/+:Ksp-Cre mice (Non-cystic) were intraperitoneally administered with ATRA (Sigma, #R2625) dissolved in sunflower oil containing 2% DMSO (solvent) to achieve a dose of 10 mg/kg. A group of mice administered with only the solvent intraperitoneally was served as a negative control. Mice were euthanized on postnatal day 9, and renal tissues and blood samples were collected.
BUN in mouse serum was measured using an UN-L kit (Serotec, #A667-00).
Kidneys were fixed in 4% paraformaldehyde solution, and 4 μm-thick paraffin sections were prepared. After deparaffinization, HE staining was performed and renal tissues were photographed under an optical microscope. Cystic index was calculated by total cystic area/total renal tissue area×100 using image analysis and measurement software (WinROOF, Mitani Corporation).
Therapeutic effects of ATRA on ADPKD model mice Since ATRA has already been used as a therapeutic agent for Acute Promyelocytic Leukemia (APL) patients, the efficacy of ATRA in ADPKD model mice was examined from a drug repositioning perspective. To reflect the in vitro results of ATRA on collecting duct cyst enlargement in in vivo, Pkd1^flox/flox:Ksp-Cre mice, in which the Pkd1 allele is conditionally inactivated under expression of kidney-specific Ksp-Cre recombinase in the distal nephron segments and collecting ducts, were used. The mice develop renal failure from birth due to progressive cyst formation and die about 2 weeks after birth. Because Ksp cadherin is specifically expressed in the collecting ducts and distal tubules, cysts originating from the collecting ducts and distal tubules are formed in these ADPKD model mice. ATRA was administered at 10 mg/kg intraperitoneally to mice on postnatal day 3 (P3), and mice were then sacrificed at P9 (FIG. 12).

[4] = 10 mg/kg intraperitoneally on P3, P9, FIG. 14

SMILES: C/C(=C\c1ccc(C(=O)O)cc1)c1ccc2c(c1)C(C)(C)CCC2(C)C [TTNPB, 4-[(E)-2-(5,6,7,8-tetrahydro-5,5,8,8-tetramethyl-2-naphthalenyl)-1-propenyl]benzoic acid]
- cyst size (cyst area) [1]: significant reduction in cyst size
- TGFβ signaling pathway (GSEA) ([2]; FIG. 8): inhibited
- expression levels of MMP1, SLC2A1, CFTR, and HMGCR ([2]; heat map FIG. 9): decreased
- expression of cellular senescence marker genes such as CDKN2B (p15) ([2]; heat map FIG. 10): promotes the expression

SMILES: CC1=C(/C=C/C(C)=C/C=C/C(C)=C/C(=O)O)C(C)(C)CCC1 [ATRA, all-trans retinoic acid]
- cyst size (cyst area) [1]: reduced the cyst sizes
- cyst formation on the cortical side (HE-stained renal tissue sections) [3, 4]: tended to inhibit cyst formation on the cortical side
- kidney size (HE-stained renal tissue sections) [3, 4]: suppressed the increase in kidney size
- ratio of kidney weights to body weight (2KW/BW) ([3]; 10 mg/kg intraperitoneally on P3, P9, vs solvent, FIG. 13): significantly decreased
- cystic index (proportion of the area occupied by cysts in the renal tissue) ([3]; 10 mg/kg intraperitoneally on P3, P9, vs solvent, FIG. 15): significantly reduced
- body weight ([3]; 10 mg/kg intraperitoneally on P3, sacrificed at P9, FIG. 12): No significant body weight loss
- BUN (blood urea nitrogen) levels ([3]; 10 mg/kg intraperitoneally on P3, serum at P9, vs control mice treated with solvent, FIG. 16): significantly lower

SMILES: CC1(C)CCC(C)(C)c2cc(NC(=O)c3ccc(C(=O)O)cc3)ccc21 [AM80, tamibarotene]
- cyst size (cyst area) [1]: significantly reduced the cyst sizes
